Test results as given in patent US11459335B2, “N/O-linked Degrons and Degronimers for protein degradation” (C4 Therapeutics, Inc., priority 2017, dated 2022).

Target: CRBN-DDB1 (Homo sapiens (Human), UniProt Q96SW2)
Assay: Fluorescence polarization (FP) assay for compound ligand binding to CRBN-DDB1
Details: FP displacement of (−)-Thalidomide-Alexa Fluor or Pomalidomide-fluorescein probe (5 nM), 400 nM CRBN-DDB1, 60 min room temperature
Experimental: Measuring compound ligand binding to CRBN-DDB1 was carried out using an established sensitive and quantitative in vitro fluorescence polarization (FP) based binding assay. […] Compounds were dispensed from serially diluted DMSO stock into black 384-well compatible fluorescence polarization plates using an Echo acoustic dispenser. Compound binding to CRBN-DDB1 was measured by displacement of either a (−)-Thalidomide-Alexa Fluor® or Pornalidomide-fluorescein conjugated probe dye. […] Matching control wells excluding CRBN-DDB1 were used to correct for background fluorescence. Plates were read on an Envision plate reader with appropriate FP filter sets. The corrected S (perpendicular) and P (parallel) values were used to calculate fluorescence polarization (FP) with the following equation: FP=1000*(S−G*P)/(S+G*P).

[1] = Additional Compounds of the Present Invention
[2] = Degrons, Compounds of the Present Invention

Chain of CRBN-DDB1 (Q96SW2 whole entry): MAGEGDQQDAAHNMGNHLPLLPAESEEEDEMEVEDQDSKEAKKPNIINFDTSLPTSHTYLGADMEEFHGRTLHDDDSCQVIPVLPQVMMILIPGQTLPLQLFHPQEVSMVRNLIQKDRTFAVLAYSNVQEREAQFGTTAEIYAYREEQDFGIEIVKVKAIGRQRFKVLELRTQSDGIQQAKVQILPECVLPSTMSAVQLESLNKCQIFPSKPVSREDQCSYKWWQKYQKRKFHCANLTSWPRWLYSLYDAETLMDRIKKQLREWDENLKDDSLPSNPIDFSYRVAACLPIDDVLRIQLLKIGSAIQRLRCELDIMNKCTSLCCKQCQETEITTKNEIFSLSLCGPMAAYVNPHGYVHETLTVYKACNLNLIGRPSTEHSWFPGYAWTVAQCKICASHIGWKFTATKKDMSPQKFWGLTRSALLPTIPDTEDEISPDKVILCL
Chain of CRBN-DDB1 (Q16531 whole entry partner): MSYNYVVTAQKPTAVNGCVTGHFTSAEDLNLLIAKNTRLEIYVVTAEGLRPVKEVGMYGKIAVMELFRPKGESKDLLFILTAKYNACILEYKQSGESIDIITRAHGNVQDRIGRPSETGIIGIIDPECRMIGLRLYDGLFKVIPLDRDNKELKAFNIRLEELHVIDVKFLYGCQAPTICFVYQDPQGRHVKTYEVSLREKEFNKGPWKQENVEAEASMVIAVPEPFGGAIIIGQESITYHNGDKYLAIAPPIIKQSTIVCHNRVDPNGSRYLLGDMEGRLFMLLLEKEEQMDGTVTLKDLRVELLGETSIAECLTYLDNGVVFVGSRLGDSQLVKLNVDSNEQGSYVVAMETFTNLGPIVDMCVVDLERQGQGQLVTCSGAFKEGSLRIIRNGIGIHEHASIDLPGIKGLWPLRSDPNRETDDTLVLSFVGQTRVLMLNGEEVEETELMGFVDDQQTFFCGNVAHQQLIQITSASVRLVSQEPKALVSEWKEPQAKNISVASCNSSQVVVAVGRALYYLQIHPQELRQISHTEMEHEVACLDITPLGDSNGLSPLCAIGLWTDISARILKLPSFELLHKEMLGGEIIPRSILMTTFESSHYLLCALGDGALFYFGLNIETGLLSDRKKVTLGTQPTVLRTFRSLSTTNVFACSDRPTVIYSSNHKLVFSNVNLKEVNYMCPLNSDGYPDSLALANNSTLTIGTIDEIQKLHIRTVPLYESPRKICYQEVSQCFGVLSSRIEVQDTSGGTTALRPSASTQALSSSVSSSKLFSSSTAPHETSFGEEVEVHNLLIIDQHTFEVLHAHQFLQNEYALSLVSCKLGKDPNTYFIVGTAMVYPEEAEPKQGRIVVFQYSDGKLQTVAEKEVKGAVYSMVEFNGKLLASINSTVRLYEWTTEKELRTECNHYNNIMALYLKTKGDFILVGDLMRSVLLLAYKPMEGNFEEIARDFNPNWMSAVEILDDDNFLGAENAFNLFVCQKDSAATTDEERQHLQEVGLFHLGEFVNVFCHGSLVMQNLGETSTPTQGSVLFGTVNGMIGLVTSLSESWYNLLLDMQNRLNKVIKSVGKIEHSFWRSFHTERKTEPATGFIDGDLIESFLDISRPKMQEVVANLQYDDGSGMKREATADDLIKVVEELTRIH

| Kd [1] | Kd [2] | Compound |
| --- | --- | --- |
| 50 to 100 µM | – | O=C1CC[C@@H](O[C@H]2CCN(c3ccccc3)C2=O)C(=O)N1 (single isomer, unassigned) [Compound 161, 3-(2-Oxo-1-phenyl-pyrrolidin-3-yloxy)-piperidine-2,6-dione] |
| 10 to 50 µM | – | O=C1CC[C@H](O[C@H]2CCN(c3ccccc3)C2=O)C(=O)N1 (single isomer, unassigned) [Compound 162, 3-(2-Oxo-1-phenyl-pyrrolidin-3-yloxy)-piperidine-2,6-dione] |
| – | 50 to 100 µM | CC(C)(C)OC(=O)N1CCN(c2nccc(NC3CCC(=O)NC3=O)n2)CC1 (stereo not drawn) [Compound 121] |
| – | 10 to 50 µM | CC(C)(C)OC(=O)N1CCC(c2ccc(NC3CCC(=O)NC3=O)nc2)CC1 (stereo not drawn) [Compound 123] |
| – | 10 to 50 µM | Cc1cnc(NC2CCC(=O)NC2=O)cn1 (stereo not drawn) [Compound 124] |
| – | 10 to 50 µM | O=C1CCC(Nc2ccccc2)C(=O)N1 (stereo not drawn) [Compound 125] |
| 10 to 50 µM | – | O=C1CCC(Oc2ccccc2)C(=O)N1 (stereo not drawn) [Compound 129] |
| 10 to 50 µM | – | CN1CCN(c2ccc(OC3CCC(=O)NC3=O)cc2)CC1 (stereo not drawn) [Compound 130] |
| 10 to 50 µM | – | CC(C)(C)OC(=O)N1CCN(c2ccc(COC3CCC(=O)NC3=O)cc2)CC1 (stereo not drawn) [Compound 131, 4-[4-(2,6-Dioxo-piperidin-3-yloxymethyl)-phenyl]-piperazine-1-carboxylic Acid tert-butyl Ester] |
| 10 to 50 µM | – | Cn1cnc2cc(OC3CCC(=O)NC3=O)ccc21 (stereo not drawn) [Compound 142] |
| 10 to 50 µM | – | Cc1ccn(-c2ccc(OC3CCC(=O)NC3=O)cc2)n1 (stereo not drawn) [Compound 143] |
| 10 to 50 µM | – | CS(=O)(=O)c1cccc(OC2CCC(=O)NC2=O)c1 (stereo not drawn) [Compound 144] |
| 50 to 100 µM | – | CC(=O)c1cc(C)ccc1OC1CCC(=O)NC1=O (stereo not drawn) [Compound 146] |
| 50 to 100 µM | – | CC(=O)c1ccccc1OC1CCC(=O)NC1=O (stereo not drawn) [Compound 153] |
| 50 to 100 µM | – | COC(=O)c1ccccc1OC1CCC(=O)NC1=O (stereo not drawn) [Compound 155] |
| 10 to 50 µM | – | CC(C)(C)OC(=O)N1CCN(c2ccc(NC3CCC(=O)NC3=O)cn2)CC1 (stereo not drawn) [Compound 156, 4-[5-(2,6-Dioxo-piperidin-3-ylamino)-pyridin-2-yl]-piperazine-1-carboxylic Acid tert-butyl Ester] |
| 10 to 50 µM | – | Cn1nc(NC2CCC(=O)NC2=O)cc1-c1ccccc1 (stereo not drawn) [Compound 157, 3-(1-Methyl-5-phenyl-1H-pyrazol-3-ylamino)-piperidine-2,6-dione] |
| 10 to 50 µM | – | O=C1CCC(Nc2ccc(N3CCNCC3)nc2)C(=O)N1 (stereo not drawn) [Compound 158, 3-(6-Piperazin-1-yl-pyridin-3-ylamino)-piperidine-2,6-dione] |
| 10 to 50 µM | – | O=C1CCC(Nc2ccc3cccnc3c2)C(=O)N1 (stereo not drawn) [Compound 163] |

Second part, the compound before the results:

| Compound | Kd [1] | Kd [2] |
| --- | --- | --- |
| CN(c1ccc(F)cc1F)C1CCC(=O)NC1=O (stereo not drawn) [Compound 2] | – | 50 to 100 µM |
| O=C1CCC(Nc2ccc(F)cc2)C(=O)N1 (stereo not drawn) [Compound 8] | – | 10 to 50 µM |
| O=C1CCC(Nc2ccccc2N2CCOCC2)C(=O)N1 (stereo not drawn) [Compound 14] | – | 10 to 50 µM |
| CN(c1ccc(F)cc1)C1CCC(=O)NC1=O (stereo not drawn) [Compound 17] | – | 10 to 50 µM |
| O=C1CCC(Nc2ccccc2OC(F)(F)F)C(=O)N1 (stereo not drawn) [Compound 21] | – | 10 to 50 µM |
| COc1ccc(C(F)(F)F)cc1NC1CCC(=O)NC1=O (stereo not drawn) [Compound 24] | – | 10 to 50 µM |
| COc1ccc(C(C)(C)C)cc1NC1CCC(=O)NC1=O (stereo not drawn) [Compound 25] | – | 50 to 100 µM |
| O=C1CCC(Nc2c(F)cccc2F)C(=O)N1 (stereo not drawn) [Compound 63] | – | 10 to 50 µM |
| COc1ccc(N(C)C2CCC(=O)NC2=O)c(OC)c1 (stereo not drawn) [Compound 69] | – | 10 to 50 µM |
| O=C1CCC(Nc2ccccc2CN2CCCC2)C(=O)N1 (stereo not drawn) [Compound 71] | – | 10 to 50 µM |
| O=C1CCC(Nc2cccc(CN3CCCCC3)c2)C(=O)N1 (stereo not drawn) [Compound 72] | – | 10 to 50 µM |
| CC(C)(C)OC(=O)N1CCC(n2cc(NC3CCC(=O)NC3=O)cn2)CC1 (stereo not drawn) [Compound 73] | – | 50 to 100 µM |
| Cn1cnc2c(NC3CCC(=O)NC3=O)cccc21 (stereo not drawn) [Compound 74] | – | 10 to 50 µM |
| O=C1CCC(Nc2cnn(-c3ccccc3)c2)C(=O)N1 (stereo not drawn) [Compound 75] | – | 10 to 50 µM |
| CN1CCc2ccc(NC3CCC(=O)NC3=O)cc2C1=O (stereo not drawn) [Compound 76] | – | 10 to 50 µM |
| Cn1cnc2cc(NC3CCC(=O)NC3=O)ccc21 (stereo not drawn) [Compound 78] | – | 10 to 50 µM |
| O=C1CCC(Nc2cccnc2)C(=O)N1 (stereo not drawn) [Compound 80] | – | 10 to 50 µM |
| O=C1CCC(Nc2ccc3c(c2)CCNC3)C(=O)N1 (stereo not drawn) [Compound 83] | – | 10 to 50 µM |
| O=C1CCC(Nc2ccc(C3CCNCC3)cn2)C(=O)N1 (stereo not drawn) [Compound 84] | – | 10 to 50 µM |

| Compound | Kd [1] | Kd [2] |
| --- | --- | --- |
| CN(c1cccc(N2CCNCC2)c1)C1CCC(=O)NC1=O (stereo not drawn) [Compound 87] | – | 10 to 50 µM |
| O=C1CCC(Nc2ccc(N3CCNCC3)cc2)C(=O)N1 (stereo not drawn) [Compound 89] | – | 10 to 50 µM |
| NCc1ccc(NC2CCC(=O)NC2=O)cc1 (stereo not drawn) [Compound 90] | – | 10 to 50 µM |
| NCc1cccc(NC2CCC(=O)NC2=O)c1 (stereo not drawn) [Compound 91] | – | 10 to 50 µM |
| CN1Cc2ccc(NC3CCC(=O)NC3=O)cc2C1=O (stereo not drawn) [Compound 93] | – | 50 to 100 µM |
| O=C1CCC(Nc2cnn(C3CCNCC3)c2)C(=O)N1 (stereo not drawn) [Compound 94] | – | 10 to 50 µM |
| CN(C1CN(C(=O)OC(C)(C)C)C1)C1CCC(=O)NC1=O (stereo not drawn) [Compound 98] | – | 50 to 100 µM |
| CN(C1CN(c2ccccc2)C1)C1CCC(=O)NC1=O (stereo not drawn) [Compound 103] | – | 10 to 50 µM |
| CN1CC(N(C)C2CCC(=O)NC2=O)CC1=O (stereo not drawn) [Compound 104] | – | 50 to 100 µM |
| CN(C1CC(=O)N(c2ccccc2)C1)C1CCC(=O)NC1=O (stereo not drawn) [Compound 105] | – | 50 to 100 µM |
| CN(CC(=O)Nc1ccccc1)C1CCC(=O)NC1=O (stereo not drawn) [Compound 108] | – | 10 to 50 µM |
| CN(CC(N)=O)C1CCC(=O)NC1=O (stereo not drawn) [Compound 110] | – | 10 to 50 µM |
| COc1cc(OC)nc(NC2CCC(=O)NC2=O)n1 (stereo not drawn) [Compound 113] | – | 50 to 100 µM |
| O=C1CCC(Nc2ccn(-c3ccccc3)n2)C(=O)N1 (stereo not drawn) [Compound 114] | – | 10 to 50 µM |
| O=C1CCC(Nc2cccnc2)C(=O)N1 (stereo not drawn) [Compound 115] | – | 10 to 50 µM |
| Cn1nc(NC2CCC(=O)NC2=O)c2ccccc21 (stereo not drawn) [Compound 116] | – | 10 to 50 µM |
| CC(C)(C)OC(=O)N1Cc2cnc(NC3CCC(=O)NC3=O)nc2C1 (stereo not drawn) [Compound 117] | – | 50 to 100 µM |
| O=C1CCC(Nc2cc(C(=O)N3CCCC3)ccn2)C(=O)N1 (stereo not drawn) [Compound 119] | – | 50 to 100 µM |
| O=C1CCC(Nc2ccc3ccccc3n2)C(=O)N1 (stereo not drawn) [Compound 120] | – | 10 to 50 µM |
